Publication PMC9484358 (Archives of Pharmacal Research, 2022)

Test system: SARS-CoV-2 spike pseudovirus
Test: organism not typed
Format: cell-based

| Compound | IC50 (read-out: IC50 value) [µM] | inhibition at 50 µM (read-out: Inhibition rate (%), 50 µM) [%] | inhibition at 100 µM (read-out: Inhibition rate (%), 100 µM) [%] |
| --- | --- | --- | --- |
| Cc1cc(-c2ccc(/N=N/c3ccc4c(S(=O)(=O)O)cc(S(=O)(=O)O)c(N)c4c3O)c(C)c2)ccc1/N=N/c1ccc2c(S(=O)(=O)O)cc(S(=O)(=O)O)c(N)c2c1O [Evans blue] | 26.9 | – | – |
| CC1(C)[C@@H](O[C@H]2O[C@H](C(=O)O)[C@@H](O)[C@H](O)[C@H]2O[C@@H]2O[C@H](C(=O)O)[C@@H](O)[C@H](O)[C@H]2O)CC[C@]2(C)[C@H]3C(=O)C=C4[C@@H]5C[C@@](C)(C(=O)O)CC[C@]5(C)CC[C@@]4(C)[C@]3(C)CC[C@@H]12 [Glycyrrhizic acid] | – | 4.01 ± 7.03 | 11.2 ± 6.96 |
